From publication PMC7588194 (Virulence, 2020) come the findings set out here.

This experiment deals with P. aeruginosa (ATCC 27853). The experiment can be described thus: Radial diffusion assay. It counts as cell-based. The following applies: for enhancement of antimicrobial activity among derivatives D1-D7 / concentration achieving similar inhibition zones: Figure 6C. The protocol: To identify library fractions and purified peptides with antibacterial activity a radial diffusion assay was carried out. Bacteria were cultured in liquid THY broth (Todd-Hewitt Broth [Oxoid, CM0189B] supplemented with 0.5% yeast extract [BD, Miami, USA, 212,750]) at 37°C overnight in a 5% CO2 atmosphere, pelleted by centrifugation and washed in 10 mM sodium phosphate buffer. Following resuspension in 10 mM sodium phosphate buffer optical density was determined spectrophotometrically at 600 nm (OD600nm). Bacterial density was adjusted to seed 2 × 10^7 bacteria into a petri dish in 1% agarose dissolved in 10 mM sodium phosphate buffer. Plates were allowed to cool for 30 min at 4°C before several 2–3 mm holes were placed into the 1% agarose. Freeze-dried fractions of the BAL library pool were reconstituted in 200 µl of ddH2O with 10 µl being used for the initial screen. Alternatively, peptides adjusted to the desired concentration in 10 µl of ddH2O were filled into the agar-holes. Following incubation at 37°C in ambient air for 3 h plates were overlaid with 10 ml of a 1% agarose solution containing 3% tryptic soy broth (TSB) dissolved in 10 mM phosphate buffer. Inhibition zones in cm were determined following 16–18 h incubation time at 37°C in a 5% CO2 atmosphere.

With GVNHVILSQIKIVKW [B2M D6], the “enhancement of antimicrobial activity among derivatives D1-D7” value is listed as “most convincing enhancement of antimicrobial activity”.

On to GVNHVKLSQIKIVKW [B2M D7], for which the “concentration achieving similar inhibition zones” value stood at 25 µg/mL and the “enhancement of antimicrobial activity among derivatives D1-D7” value is “most convincing enhancement of antimicrobial activity”.

Take RVNHVTLSQPKIVKW [B2M 101-115]: the “times the amount needed compared to D7 at 25 µg/ml for similar inhibition zones” value is recorded as 2–4 and the “concentration achieving similar inhibition zones” value was in the range of 50 to 100 µg/mL.
